Key:
Experiment in all cases: relative viability (nuclei count vs DMSO), 5 days (fraction); higher = more cells survive
XMD14-99 + Crizotinib = compound: CN1CCN(CC1)C2=CC(=C(C=C2)NC3=NC(=C(S3)C(=O)C4=C(C=CC=C4Cl)Cl)N)OC [XMD14-99] + C[C@@H](Oc1cc(-c2cnn(C3CCNCC3)c2)cnc1N)c1c(Cl)ccc(F)c1Cl [Crizotinib] (partner 1 µM)
Outline: (§1)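 Relative viability was taken as the ratio of nuclei in treated wells to nuclei in vehicle wells. Lung cancer cell lines in 1536-well plates received compounds by pin tool one day after seeding, either one drug alone or a fixed anchor-drug dose plus five library-drug doses (not always all listed) in √10 steps. Nuclei were counted on 4× images after 5 days of treatment, and values are medians of duplicate plates.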

AZD1208 + Vorinostat = compound: N[C@@H]1CCCN(c2c(/C=C3\SC(=O)NC3=O)cccc2-c2ccccc2)C1 [AZD1208] + O=C(CCCCCCC(=O)Nc1ccccc1)NO [Vorinostat] (partner 1 µM)
Outline: as §1

XMD14-99 + Decitabine = compound: CN1CCN(CC1)C2=CC(=C(C=C2)NC3=NC(=C(S3)C(=O)C4=C(C=CC=C4Cl)Cl)N)OC [XMD14-99] + Nc1ncn([C@H]2C[C@H](O)[C@@H](CO)O2)c(=O)n1 [Decitabine] (partner 2 µM)
Outline: as §1

AZD1208 + Tozasertib = compound: N[C@@H]1CCCN(c2c(/C=C3\SC(=O)NC3=O)cccc2-c2ccccc2)C1 [AZD1208] + Cc1cc(Nc2cc(N3CCN(C)CC3)nc(Sc3ccc(NC(=O)C4CC4)cc3)n2)n[nH]1 [Tozasertib] (partner 0.1 µM)
Outline: as §1

Row | Cell Line | relative viability (XMD14-99 + Crizotinib; first compound 0.08 µM) | relative viability (XMD14-99 + Crizotinib; first compound 0.8 µM) | relative viability (XMD14-99 + Crizotinib; first compound 2.53 µM) | relative viability (XMD14-99 + Crizotinib; first compound 8 µM) | relative viability (AZD1208 + Vorinostat; first compound 0.08 µM) | relative viability (AZD1208 + Vorinostat; first compound 0.253 µM) | relative viability (AZD1208 + Vorinostat; first compound 0.8 µM) | relative viability (AZD1208 + Vorinostat; first compound 2.53 µM) | relative viability (AZD1208 + Vorinostat; first compound 8 µM) | relative viability (XMD14-99 + Decitabine; first compound 0.08 µM) | relative viability (XMD14-99 + Decitabine; first compound 0.8 µM) | relative viability (XMD14-99 + Decitabine; first compound 2.53 µM) | relative viability (XMD14-99 + Decitabine; first compound 8 µM) | relative viability (AZD1208 + Tozasertib; first compound 0.08 µM) | relative viability (AZD1208 + Tozasertib; first compound 0.253 µM) | relative viability (AZD1208 + Tozasertib; first compound 0.8 µM) | relative viability (AZD1208 + Tozasertib; first compound 2.53 µM) | relative viability (AZD1208 + Tozasertib; first compound 8 µM)
1 | LXF-289 | 0.814 | 0.802 | 0.814 | 0.712 | 0.791 | 0.849 | 0.701 | 0.715 | 0.832 | 0.378 | 0.371 | 0.37 | 0.36 | 0.178 | 0.158 | 0.16 | 0.131 | 0.123
2 | H3255 | 0.831 | 0.64 | 0.757 | 0.597 | 0.831 | 0.869 | 0.772 | 0.747 | 0.74 | 0.584 | 0.674 | 0.546 | 0.513 | 0.664 | 0.675 | 0.534 | 0.58 | 0.689
3 | 201T | 1.03 | 1.02 | 1.01 | 0.917 | 0.961 | 1.01 | 0.967 | 0.949 | 0.952 | 0.852 | 0.833 | 0.833 | 0.741 | 0.959 | 0.934 | 0.865 | 0.803 | 0.649
4 | HOP-62 | 1.06 | 0.942 | 0.883 | 0.663 | 0.657 | 0.856 | 0.6 | 0.455 | 0.572 | 0.23 | 0.226 | 0.237 | 0.273 | 0.372 | 0.302 | 0.372 | 0.287 | 0.263
5 | NCI-H596 | 1.01 | 0.974 | 1.04 | 1.02 | 0.628 | 0.632 | 0.558 | 0.661 | 0.48 | 1.03 | 0.943 | 0.858 | 0.964 | 0.896 | 0.925 | 0.77 | 0.733 | 0.592
6 | NCI-H1755 | 0.846 | 0.878 | 0.825 | 0.614 | 0.79 | 0.893 | 0.604 | 0.685 | 0.555 | 0.761 | 0.68 | 0.698 | 0.709 | 0.525 | 0.532 | 0.52 | 0.417 | 0.358
7 | NCI-H2085 | 0.833 | 0.814 | 0.843 | 0.56 | 0.796 | 0.821 | 0.749 | 0.82 | 0.751 | 0.561 | 0.529 | 0.523 | 0.45 | 0.811 | 0.858 | 0.714 | 0.868 | 0.771
8 | NCI-H2023 | 0.731 | 0.648 | 0.667 | 0.495 | 0.627 | 0.769 | 0.517 | 0.689 | 0.571 | 0.222 | 0.212 | 0.228 | 0.166 | 0.389 | 0.235 | 0.254 | 0.219 | 0.181

From the supplement of paper PMC10307832
